Test results reported in US5527796A, “Thienothiazine derivatives and their use” (Chemisch Pharmazeutische Forschungsgesellschaft m.b.H., priority 1992, dated 1996).

Assays:
5-lipoxygenase = target: T1, 5-lipoxygenase (Rattus norvegicus, UniProt P12527); experiment: formation of LTB4 by neutrophils as a measure for 5-lipoxygenase activity (A23187-stimulated, RIA); format: cell-based, Male Sprague Dawley rats; conditions: A23187 2 μmol/l, 5 min at 37° C.
T1 construct: neutrophils harvested by aspiration; endogenous in cells; host or cells: peritoneal neutrophils of male Sprague Dawley rats, harvested 16 h after intraperitoneal carrageenan
T1 sequence (P12527 1-673): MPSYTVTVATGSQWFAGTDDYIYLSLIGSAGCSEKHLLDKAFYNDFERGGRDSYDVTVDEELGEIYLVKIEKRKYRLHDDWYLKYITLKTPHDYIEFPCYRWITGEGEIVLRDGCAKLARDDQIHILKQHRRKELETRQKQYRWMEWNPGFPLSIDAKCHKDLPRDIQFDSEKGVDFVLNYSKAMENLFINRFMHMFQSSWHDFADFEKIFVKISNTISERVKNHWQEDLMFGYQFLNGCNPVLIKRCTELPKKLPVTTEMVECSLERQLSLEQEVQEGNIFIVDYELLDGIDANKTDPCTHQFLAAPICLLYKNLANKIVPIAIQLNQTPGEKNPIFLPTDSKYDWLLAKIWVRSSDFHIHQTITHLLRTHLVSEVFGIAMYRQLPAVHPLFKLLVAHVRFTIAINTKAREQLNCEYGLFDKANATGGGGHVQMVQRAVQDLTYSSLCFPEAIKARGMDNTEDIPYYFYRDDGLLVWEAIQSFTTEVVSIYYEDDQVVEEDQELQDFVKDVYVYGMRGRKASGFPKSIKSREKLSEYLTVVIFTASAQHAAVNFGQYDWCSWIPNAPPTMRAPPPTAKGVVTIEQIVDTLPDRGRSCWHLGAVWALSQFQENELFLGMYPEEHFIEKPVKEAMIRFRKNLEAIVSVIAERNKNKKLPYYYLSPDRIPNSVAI
Procedure: (§1) The formation of PGD2 by neutrophils was used as a measure for cyclooxygenase activity and the formation of LTB4 was used as a measure for 5-lipoxygenase activity.
(§2) Male Sprague Dawley rats (250-300 g) were injected with lambda carrageenan 1 mg intraperitoneally (dissolved in 0.5 ml dest.water) per animal. After 16 hours the rats were killed by exposure to diethylether. 15 ml ice cold Hanks balanced salt solution were injected i.p., neutrophils harvested by aspiration (10 ml), centrifuged (5 min, 100 g, 4° C.), the supernatant decanted and cells resuspended in HBSS at 4° C. to 5×10^6 cells/mi. 400 μl cell suspension (2×10^6 cells), 0.5 μl drugs dissolved in DMSO and 49.5 μl HBSS were incubated for 5 min at 37° C. Then 50 μl A23187 (2 μmol/l final conc.) were added followed by 5 min incubation at 37° C. The reaction was stopped by centrifugation for 30 s at 10000 g and the supernatant transferred to precooled plastic tubes and kept in an ice bath for max. 1 hour before starting RIA. PGD2 and LTB4 in the samples were measured after appropriate dilution with HBSS using commercial RIA kits.
(§3) Using the above mentioned methods the new compounds were tested. The inhibition of cyclooxygenase and of 5-lipoxygenase was measured.

cyclooxygenase = experiment: formation of PGD2 by neutrophils as a measure for cyclooxygenase activity (A23187-stimulated, RIA); format: cell-based, Male Sprague Dawley rats; conditions: for IC50: rat neutrophils, A23187 2 μmol/l, 5 min at 37° C., RIA of PGD2
Procedure: as §1, §2, §3

| SMILES | IC50 (5-lipoxygenase) | IC50 (cyclooxygenase) | inhibition of cyclooxygenase (in words) (cyclooxygenase; PGD2 formation) |
| --- | --- | --- | --- |
| CN1C(C(=O)Nc2ccccn2)=C(O)c2sc(Cl)cc2S1(=O)=O [Compound A, 6-chloro-4-hydroxy-2-methylo-N-(2-pyridyl)-2h-thieno[2,3-e]-1,2-thiazine-3-carboxamide-1,1-dioxide, reference compound] | > 10000 nM | 20 nM | inhibited only cyclooxygenase |
| CN1C(C(=O)Nc2cccc(C#Cc3ccccc3)n2)=C(O)c2sc(Cl)cc2S1(=O)=O [Example 7, 6-Chloro-4-hydroxy-2-methyl-N-[6-phenylethinyl]-2-pyridyl-2H-thieno[2,3-e]-1,2-thiazin-3-carbox-amide-1,1,-dioxide] | 3700 nM | 410 nM |  |
| CN1C(C(=O)Nc2cccc(CCCc3ccccc3)n2)=C(O)c2sc(Cl)cc2S1(=O)=O [Example 8, 6-Chloro-4-hydroxy-2-methyl-N-[6-(3-phenylpropyl)]-2-pyridyl-2H-thieno[2,3-e]-1,2-thiazin-3-carbox-amide-1,1,-dioxide] | 4200 nM | 510 nM |  |
| CN1C(C(=O)Nc2cccc(COc3ccc(F)cc3)n2)=C(O)c2sc(Cl)cc2S1(=O)=O [Example 10, 6-Chloro-4-hydroxy-2-methyl-N-[6-(4-fluorphenoxy-methyl)]-2-pyridyl-2H-thieno[2,3-e]-1,2-thiazin-3-carboxamide-1,1,-dioxide] | 4800 nM | 450 nM |  |
| CN1C(C(=O)Nc2cccc(OCc3ccccc3)n2)=C(O)c2sc(Cl)cc2S1(=O)=O [Example 13, 6-Chloro-4-hydroxy-2-methyl-N-[6-phenylmethoxy]-2-pyridyl-2H-thieno[2,3-e]-1,2-thiazin-3-carbox-amide-1,1,-dioxide] | 5100 nM | 150 nM |  |
| CN1C(C(=O)Nc2cccc(/C=C/c3ccccc3)n2)=C(O)c2sc(Cl)cc2S1(=O)=O [Example 14, 6-Chloro-4-hydroxy-2-methyl-N-[6-((E)-2-phenylethenyl)]-2-pyridyl-2H-thieno[2,3-e]-1,2-thiazin-3-carbox-amide-1,1,-dioxide] | 4300 nM | 180 nM |  |
| CN1C(C(=O)Nc2cccc(OCc3ccc4ccccc4n3)n2)=C(O)c2sc(Cl)cc2S1(=O)=O [Example 17, 6-Chloro-4-hydroxy-2-methyl-N-[6-quinalinylmethoxy]-2-pyridyl-2H-thieno[2,3-e]-1,2-thiazin-3-carbox-amide-1,1,-dioxide] | 2000 nM | 660 nM |  |
| CN1C(C(=O)Nc2cccc(OCc3cc4ccccc4s3)n2)=C(O)c2sc(Cl)cc2S1(=O)=O [Example 20] | 3200 nM | 350 nM |  |

More lines, in order of falling IC50 (5-lipoxygenase), values ahead:

| IC50 (5-lipoxygenase) | IC50 (cyclooxygenase) | SMILES | inhibition of cyclooxygenase (in words) (cyclooxygenase; PGD2 formation) |
| --- | --- | --- | --- |
| 7300 nM | 120 nM | CN1C(C(=O)Nc2cccc(COc3ccccc3)n2)=C(O)c2sc(Cl)cc2S1(=O)=O [Example 11] |  |
| 2700 nM | 190 nM | CN1C(C(=O)Nc2cccc(CCc3ccccc3)n2)=C(O)c2sc(Cl)cc2S1(=O)=O [Example 4, 6-Chloro-4-hydroxy-2-methyl-N-[6-(2-phenylethyl)-2-pyridyl]-2H-thieno[2,3-e]-1,2-thiazine-3-carboxamide-1,1-dioxide] |  |
| 2000 nM | 16 nM | CN1C(C(=O)Nc2cccc(-c3cc4ccccc4o3)n2)=C(O)c2sc(Cl)cc2S1(=O)=O [Example 12, 6-Chloro-4-hydroxy-2-methyl-N-[6-(2-benzo(b)furyl)]-2-pyridyl-2H-thieno[2,3-e]-1,2-thiazin-3-carbox-amide-1,1,-diol] |  |
| 1900 nM | 750 nM | CN1C(C(=O)Nc2cccc(CCCCc3ccccc3)n2)=C(O)c2sc(Cl)cc2S1(=O)=O [Example 9, 6-Chloro-4-hydroxy-2-methyl-N-[6-(4-phenylbutyl)]-2-pyridyl-2H-thieno[2,3-e]-1,2-thiazin-3-carbox-amide-1,1,-dioxide] |  |
